Tested on: inducible human Hsp70
Assay: Hsp70 RNA induction by quantitative PCR analysis
Type: cell-based
Settings: Ramos B cells, 500 nM compound, 6 hours, Hsp70 RNA relative to gapdh; for fold induction at 0.5 µM: Homo sapiens, read-out: fold induction over DMSO; for % induction relative to Compound X: Compound X set to 100%
Experimental: The ability of the compounds of the invention to induce Hsp70 RNA induction by quantitative PCR analysis was examined. Ramos B cells were treated with 500 nM each compound for 6 hours and the RNA was isolated from the cells. Quantitative PCR was performed as described below:
Details for Quantitative PCR are as follows:
500 ng of RNA from each sample was used for cDNA synthesis using iScript cDNA Synthesis Kit (Biorad, Cat#170-8891). 1 ul of cDNA mixture was used with the iQ SYBR Green Supermix (Biorad, Cat#170-8882) to perform quantitative PCR in an iCycler machine (Biorad) using standard protocols. QPCR for each sample/time point was performed in duplicate. The following primers for inducible human Hsp70 and gapdh were used: […]
Ct values were obtained from the iCycler program and used in an equation (2^−ΔΔCT) for determining the amount of target relative to gapdh expression. This compares the relative expression of Hsp70 to the corresponding levels of gapdh in each sample. Duplicate wells were averaged. The amount of N-Malonyl-bis(N′-methyl-N′ thiobenzoylhydrazide) (Compound X) induction of Hsp70 was set to 100% and the percent of induction of Hsp70 by the compounds of the invention was determined relative to 100%.

## CN(/N=C/c1cccc(/C=N/N(C)C(=S)c2ccccc2)n1)C(=S)c1ccccc1 [Compound 16, (N′,N″E,N′,N″E)-N′,N″-(pyridine-2,6-diylbis(methan-1-yl-1-ylidene))bis(N-methylbenzothiohydrazide)]
  fold induction at 0.5 µM: 0.48
  % induction relative to Compound X: 0.18%

## CN(/N=C1\CCC/C(=N\N(C)C(=S)c2ccccc2)C1)C(=S)c1ccccc1 [Compound 22, (N′,N″E,N′,N″E)-N′,N″-(cyclohexane-1,3-diylidene)bis(N-methylbenzothiohydrazide)]
  fold induction at 0.5 µM: 0.16
  % induction relative to Compound X: 0.06%

## CN(/N=C/c1cccc(/C=N/N(C)C(=S)c2ccccc2)c1)C(=S)c1ccccc1 [Compound 17, (N′,N″E,N′,N″E)-N′,N″-(1,3-phenylenebis(methan-1-yl-1-ylidene))bis(N-methylbenzothiohydrazide)]
  fold induction at 0.5 µM: 0.54
  % induction relative to Compound X: 0.20%
